For test [1], the target named is T1, Adenosine receptor A1 (Cavia porcellus, UniProt P47745).
T1 sequence (P47745 whole entry): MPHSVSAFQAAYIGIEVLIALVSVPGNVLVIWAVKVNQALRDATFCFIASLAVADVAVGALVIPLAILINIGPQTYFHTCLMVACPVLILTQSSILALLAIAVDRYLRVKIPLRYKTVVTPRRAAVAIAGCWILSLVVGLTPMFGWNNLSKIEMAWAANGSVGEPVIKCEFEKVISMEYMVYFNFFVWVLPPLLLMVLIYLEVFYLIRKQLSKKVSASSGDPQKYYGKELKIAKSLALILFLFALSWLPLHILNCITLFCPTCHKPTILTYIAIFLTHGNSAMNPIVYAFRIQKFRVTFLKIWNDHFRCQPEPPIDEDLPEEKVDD
The experiment in a line: Effective concentration required for prolongation of the stimulus-QRS interval by 50% of the maximum response at the A1 adenosine receptor in langendorff guinea pig heart preparation. Type of test: functional.

The target of test [2] is T2, Adenosine A2 receptor (Homo sapiens, UniProt P29275+P29274).
Description: Concentration required for coronary arteries vasodilation at the A2 adenosine receptor in langendorff guinea pig heart preparation
The target in test [3] is T1, Adenosine receptor A1. Briefly: Effective concentration required for prolongation of the stimulus-QRS interval by 50% of the maximum response at the Adenosine A1 receptor in langendorff guinea pig heart preparation. It counts as functional.
Test [4] concerns the target T2, Adenosine A2 receptor. The source holds these as a separate data set.
Description: Concentration required for coronary arteries vasodilation at the Adenosine A2 receptor in langendorff guinea pig heart preparation

As a reminder, the EC50 is the concentration needed to bring the measured effect to its halfway point.

Regarding `Nc1nc(Oc2ccccc2)nc2c1ncn2C1O[C@@H](CO)[C@H](O)[C@@H]1O` (stereo partly drawn), a half-maximal effect on Adenosine receptor A1 [1] (EC50) was put at 46.8 µM. In addition, the “-Log EC50” value on Adenosine A2 receptor [2] amounted to 6.38.
`Nc1nc(OCCc2cccc3ccccc23)nc2c1ncn2C1O[C@@H](CO)[C@H](O)[C@@H]1O` (stereo partly drawn) showed an EC50 on Adenosine receptor A1 [1] of 8.32 µM.
`Nc1nc(OCCc2ccc(Cl)cc2)nc2c1ncn2[C@H]1O[C@@H](CO)[C@H](O)[C@@H]1O` had an EC50 at Adenosine receptor A1 [3] of 14.5 µM.
Take `Cc1ccccc1CCOc1nc(N)c2ncn(C3O[C@@H](CO)[C@H](O)[C@@H]3O)c2n1` (stereo partly drawn): the EC50 at Adenosine receptor A1 [3] was 25.1 µM. For the same compound, the “-Log EC50” value at Adenosine A2 receptor [4] is 8.42.
In turn, `Nc1nc(OCCc2ccccc2)nc2c1ncn2C1O[C@@H](CO)[C@H](O)[C@@H]1O` (stereo partly drawn) showed an EC50 at Adenosine receptor A1 [1] of 20 µM. The “-Log EC50” value at Adenosine A2 receptor [2] worked out at 8.55.
At Adenosine receptor A1 [3], `Nc1nc(OCCc2ccc3ccccc3c2)nc2c1ncn2C1O[C@@H](CO)[C@H](O)[C@@H]1O` (stereo partly drawn) gave a 50% effective concentration (EC50) of 11.5 µM. The “-Log EC50” value at Adenosine A2 receptor [4] was 9.3.
In the case of `COc1ccc(CCOc2nc(N)c3ncn(C4O[C@@H](CO)[C@H](O)[C@@H]4O)c3n2)cc1` (stereo partly drawn), a half-maximal response at Adenosine receptor A1 [1] (EC50) required 19.5 µM. In addition, at Adenosine A2 receptor [2], the “-Log EC50” value turned out to be 8.85.
For `Nc1nc(OCCCCc2ccccc2)nc2c1ncn2C1O[C@@H](CO)[C@H](O)[C@@H]1O` (stereo partly drawn), in that order: 7.08 µM and 8.02.
With `Cc1cccc(CCOc2nc(N)c3ncn(C4O[C@@H](CO)[C@H](O)[C@@H]4O)c3n2)c1` (stereo partly drawn), on Adenosine receptor A1 [3], the concentration for a half-maximal effect (EC50) was 12.9 µM. In addition, at Adenosine A2 receptor [4], the “-Log EC50” value is 8.8.
For the compound `Nc1nc(OCCc2ccccc2F)nc2c1ncn2C1O[C@@H](CO)[C@H](O)[C@@H]1O` (stereo partly drawn), the half-maximal effective concentration (EC50) on Adenosine receptor A1 [1] is 35.5 µM. The “-Log EC50” value on Adenosine A2 receptor [2] was determined as 8.58.
At Adenosine receptor A1 [1], `Nc1nc(OCCc2cccc(F)c2)nc2c1ncn2C1O[C@@H](CO)[C@H](O)[C@@H]1O` (stereo partly drawn) gave an EC50 of 34.7 µM. Moreover, the “-Log EC50” value on Adenosine A2 receptor [2] came to 8.72.
For `Nc1nc(OCCc2ccc(F)cc2)nc2c1ncn2C1O[C@@H](CO)[C@H](O)[C@@H]1O` (stereo partly drawn), in that order: 25.7 µM and 9.06.
At Adenosine receptor A1 [1], `Nc1nc(OCCCCCc2ccccc2)nc2c1ncn2C1O[C@@H](CO)[C@H](O)[C@@H]1O` (stereo partly drawn) had an EC50 of 4.57 µM. In addition, the “-Log EC50” value at Adenosine A2 receptor [2] was determined as 8.2.
As for `COc1ccc(CCOc2nc(N)c3ncn(C4O[C@@H](CO)[C@H](O)[C@@H]4O)c3n2)cc1OC` (stereo partly drawn), on Adenosine receptor A1 [3], the response was half-maximal at 42.7 µM (EC50). The “-Log EC50” value on Adenosine A2 receptor [4] is listed as 8.31.
For `Nc1nc(OCCc2cccs2)nc2c1ncn2C1O[C@@H](CO)[C@H](O)[C@@H]1O` (stereo partly drawn) the same measures were 11.7 µM and 8.43.
`Nc1nc(OCCc2ccsc2)nc2c1ncn2C1O[C@@H](CO)[C@H](O)[C@@H]1O` (stereo partly drawn): the EC50 on Adenosine receptor A1 [3] is 18.6 µM. For the same compound, at Adenosine A2 receptor [4], the “-Log EC50” value was […].
The compound `Cc1ccc(CCOc2nc(N)c3ncn(C4O[C@@H](CO)[C@H](O)[C@@H]4O)c3n2)cc1` (stereo partly drawn) had a 50% effective concentration (EC50) at Adenosine receptor A1 [3] of 7.41 µM. The “-Log EC50” value on Adenosine A2 receptor [4] is on record as 9.72.
`COc1cc(CCOc2nc(N)c3ncn(C4O[C@@H](CO)[C@H](O)[C@@H]4O)c3n2)cc(OC)c1OC` (stereo partly drawn) had a 50% effective concentration (EC50) on Adenosine receptor A1 [3] of 46.8 µM. The “-Log EC50” value at Adenosine A2 receptor [4] is listed as 7.66.
In turn, `Nc1nc(OCCc2c[nH]c3ccccc23)nc2c1ncn2C1O[C@@H](CO)[C@H](O)[C@@H]1O` (stereo partly drawn) had an EC50 on Adenosine receptor A1 [1] of 14.1 µM. Besides, the “-Log EC50” value at Adenosine A2 receptor [2] worked out at 8.01.
At Adenosine receptor A1 [3], `COc1ccccc1CCOc1nc(N)c2ncn(C3O[C@@H](CO)[C@H](O)[C@@H]3O)c2n1` (stereo partly drawn) had a 50% effective concentration (EC50) of 35.5 µM. For the same compound, the “-Log EC50” value on Adenosine A2 receptor [4] is listed as 7.5.
For `Nc1nc(OCc2ccccc2)nc2c1ncn2C1O[C@@H](CO)[C@H](O)[C@@H]1O` (stereo partly drawn) the same measures were 6.31 µM and 6.38.
Take `Nc1nc(OCCCc2ccccc2)nc2c1ncn2[C@H]1O[C@@H](CO)[C@H](O)[C@@H]1O`: it took 20 µM to reach a half-maximal effect on Adenosine receptor A1 [1] (EC50). For the same compound, the “-Log EC50” value at Adenosine A2 receptor [2] is given as 7.21.
Consider `Nc1nc(OCCc2cccc(Cl)c2)nc2c1ncn2C1O[C@@H](CO)[C@H](O)[C@@H]1O` (stereo partly drawn), for which the concentration for a half-maximal effect (EC50) at Adenosine receptor A1 [3] is 16.2 µM. The “-Log EC50” value on Adenosine A2 receptor [4] is reported as 8.52.
At Adenosine receptor A1 [1], `Nc1nc(OCCc2ccccc2Cl)nc2c1ncn2C1O[C@@H](CO)[C@H](O)[C@@H]1O` (stereo partly drawn) showed an EC50 of 21.9 µM. The “-Log EC50” value on Adenosine A2 receptor [2] was 8.26.
On Adenosine receptor A1 [3], `COc1cccc(CCOc2nc(N)c3ncn(C4O[C@@H](CO)[C@H](O)[C@@H]4O)c3n2)c1` (stereo partly drawn) gave an EC50 of 16.2 µM. In addition, the “-Log EC50” value at Adenosine A2 receptor [4] stood at 8.59.

These data come from ChEMBL document CHEMBL1125902, “2-aralkoxyadenosines: potent and selective agonists at the coronary artery A2 adenosine receptor” (J Med Chem, 1991).
